Data set [1] is described as follows: Molar enthalpy of transition or fusion. The settings on record: DSC.
The conditions of data set [2]: for Normal melting temperature: DTA.
Data set [3] in a line: xn = mol fraction of the nth substance listed. The settings on record: 298.15 K, 77 kPa, Crystal of unknown type, Transient plane heat source method.

The structures appear in SMILES notation. ± gives the expanded uncertainty stated by the source.

Consider `O=C(O)CCCCC(=O)O` [1,6-hexanedioic acid], for which the “Molar enthalpy of transition or fusion” value in data set [1] (Crystal) came to 8.57 ± 0.884 kcal/mol. Besides, in data set [2] (Crystal), the Normal melting temperature came to 150.17 ± 2 °C.
For the compound `O=C(O)CCCCCCC(=O)O` [1,8-octanedioic acid], the “Molar enthalpy of transition or fusion” value was found to be 6.94 ± 0.717 kcal/mol in data set [1] (Crystal 1) and 2.07 ± 0.215 kcal/mol in data set [1] (Crystal 2). Moreover, the Normal melting temperature in data set [2] (Crystal 1) is 140.63 ± 2 °C. Also, in data set [2] (Crystal 2, DSC), the Triple point temperature worked out at 405.59 ± 2.1 K.
Consider `O=C(O)CCCCCCC(=O)O` [1,8-octanedioic acid] + CCCCCCCCCCCCCCCCCC(=O)O, for which the thermal conductivity in data set [3] (x2 = 0.936) is 0.172 ± 0.013 W/m/K.
As to `O=C(O)CCCCCCCCC(=O)O` [1,10-decanedioic acid], the “Molar enthalpy of transition or fusion” value in data set [1] (Crystal) amounted to 10.6 ± 1.08 kcal/mol. For the same compound, in data set [2] (Crystal), the Normal melting temperature is 131.8 ± 2 °C.
For the compound `O=C(O)CCCCCCCCC(=O)O` [1,10-decanedioic acid] + CCCCCCCCCCCCCCCCCC(=O)O, the thermal conductivity in data set [3] (x2 = 0.945) is 0.1802 ± 0.013 W/m/K.
Take `CCCCCCCCCCCCCCCCCC(=O)O` [octadecanoic acid]: in data set [1] (Crystal), the “Molar enthalpy of transition or fusion” value was found to be 13.7 ± 1.39 kcal/mol. Further, in data set [2] (Crystal), the Normal melting temperature worked out at 69 ± 2 °C.
As for `CCCCCCCCCCCCCCCCCC(=O)O` [octadecanoic acid] + O=C(O)CCCCC(=O)O, the thermal conductivity in data set [3] (x1 = 0.962) is recorded as 0.1439 ± 0.011 W/m/K.

(Values after the NIST ThermoML archive (doi:10.1016/j.jct.2018.01.008).)
